Source: patent publication US20040142923A1, “Pyrrolidine sulfonamides” (priority 2003, published 2004)

Biological target: human and rat GPR-14
Experiment: Radioligand binding ([125I] h-U-II)
Conditions: radioligand binding assay; HEK-293 cell membranes, 200 pM [125I] h-U-II; species (human or rat) not given
Experimental: HEK-293 cell membranes containing stable cloned human and rat GPR-14 (20 ug/assay) were incubated with 200 pM [125I] h-U-II (200 Ci/mmol^−1 in the presence of increasing concentrations of test compounds in DMSO (0.1 nM to 10 uM), in a final incubation volume of 200 ul (20 mM Tris-HCl, 5 mM MgCl2). Incubation was done for 30 minutes at room temperature followed by filtration GF/B filters with Brandel cell harvester. ^125I labeled U-II binding was quantitated by gamma counting. Nonspecific binding was defined by ^125I U-II binding in the presence of 100 nM of unlabeled human U-II. Analysis of the data was performed by nonlinear least square fitting.

Ki: 1.5 µM
Structure (SMILES): O=C(NC1CCN(S(=O)(=O)c2cc(Cl)c(OC3CCNCC3)c(Cl)c2)C1)c1ccc(Cl)c(Cl)c1 (stereo not shown) [Example 5]
